In this assay the test system is HeLa cells. Kind of assay: CellTiter-Glo luminescent cell viability (cytotoxicity) assay. Type of assay: cell-based. The following applies: Homo sapiens, HeLa, 48 h, 10 μM test compound, inhibition of luminescence compared to control cells, read-out: Activity (PCT_INHIB @ 10 μM). The method, then: Cytotoxicity was assessed using Promega's CellTiter-Glo® luminescent cell viability assay (Promega Corporation, Madison, Wis., USA) as described in Promega Technical Bulletin TB288, revised August 2008. The assay was performed in HeLa cells at a maximum concentration tested of 10 μM of test compound. This assay measures the amount of adenosine triphosphate (ATP) present as a way of quantifying the presence and degree of metabolic activity in cell cultures.
Viable Hela cells were plated at a density of 3000 cells/well in 96 wells in black, clear bottom plates. Cells were allowed to attach to the plate by incubating overnight at 37° C. Test compounds were diluted in DMSO then further diluted in 10% FBS media. Media was removed from the cell plates and 50 μL of the solution was added to each well manually with the exception of the control well, which contained the same volume of 10% FBS media which includes 1% DMSO. Cells were incubated in the presence of compound undisturbed for 48 hours at 37° C. After the 48 hour compound exposure, 50 μL of the pCellTiter Glo® reagent was added. The cell plates were agitated on a shaker for 2 minutes to help lyse the cells. The plate was covered and read for luminescence.
Percent inhibition was calculated as follows: PCT_INHIB=100*[(U−T)/U] Where U represents the Luminescence of wells containing untreated cells and
T represents the Luminescence of wells containing compound-treated cells

SMILES strings stand for the structures. Structures can show the parent of a compound that is named as a salt.

Regarding `Cc1ccc(Cl)c(CN(Cc2cccc(CN3C(C(=O)N[C@H]4C[C@H]5C[C@@H]([C@@H]4C)C5(C)C)CCS3(=O)=O)c2)[C@H](CN(C)C)CC(C)(C)C)c1F` (stereo partly drawn) [Example 15, 2-(3-{[(6-Chloro-2-fluoro-3-methyl-benzyl)-((S)-1-dimethylaminomethyl-3,3-dimethylbutyl)-amino]-methyl}-benzyl)-1,1-dioxo-1λ^6-isothiazolidine-3-carboxylic acid((1S,2S,3S,5R)-2,6,6-trimethyl-bicyclo[3.1.1]hept-3-yl)-amide trifluoroacetate salt], the inhibition at 10 µM came out at 91%.
With `C[C@@H]1[C@@H](NC(=O)C2CCS(=O)(=O)N2Cc2cccc(CN(Cc3ccccc3Oc3ccc(C#N)cc3)[C@H](CN(C)C)CC(C)(C)C)c2)C[C@H]2C[C@@H]1C2(C)C` (stereo partly drawn) [Example 16, 2-(3-{[[2-(4-Cyano-phenoxy)-benzyl]-((S)-1-dimethylaminomethyl-3,3-dimethyl-butyl)-amino]-methyl}-benzyl)-1,1-dioxo-1λ^6-isothiazolidine-3-carboxylic acid((1S,2S,3S,5R)-2,6,6-trimethyl-bicyclo[3.1.1]hept-3-yl)-amide trifluoroacetate salt], the inhibition at 10 µM worked out at 97%.
To `C[C@@H]1[C@@H](NC(=O)C2CCS(=O)(=O)N2Cc2cccc(CN(Cc3cccc4c3OCO4)[C@H](CN(C)C)CC(C)(C)C)c2)C[C@H]2C[C@@H]1C2(C)C` (stereo partly drawn) [Example 17, 2-(3-{[Benzo[1,3]dioxol-4-ylmethyl-((S)-1-dimethylaminomethyl-3,3-dimethyl-butyl)-amino]-methyl}-benzyl)-1,1-dioxo-1λ^6-isothiazolidine-3-carboxylic acid((1S,2S,3S,5R)-2,6,6-trimethyl-bicyclo[3.1.1]hept-3-yl)-amide trifluoroacetate salt] belongs 96%.
Turning to `C[C@@H]1[C@@H](NC(=O)C2CCS(=O)(=O)N2Cc2cccc(CN(Cc3c(F)ccc(Br)c3F)[C@H](CN(C)C)CC(C)(C)C)c2)C[C@H]2C[C@@H]1C2(C)C` (stereo partly drawn) [Example 18, 2-(3-{[(3-Bromo-2,6-difluoro-benzyl)-((S)-1-dimethylaminomethyl-3,3-dimethyl-butyl)-amino]-methyl}-benzyl)-1,1-dioxo-1λ^6-isothiazolidine-3-carboxylic acid((1S,2S,3S,5R)-2,6,6-trimethyl-bicyclo[3.1.1]hept-3-yl)-amide trifluoroacetate salt], the inhibition at 10 µM worked out at 94%.
With `COc1ccc(Cl)c(CN(Cc2cccc(CN3C(C(=O)N[C@@H]4C[C@@H]5C[C@H]([C@H]4C)C5(C)C)CCS3(=O)=O)c2)[C@H](CN(C)C)CC(C)(C)C)c1F` (stereo partly drawn) [Example 19, 2-(3-{[(6-Chloro-2-fluoro-3-methoxy-benzyl)-((S)-1-dimethylaminomethyl-3,3-dimethyl-butyl)-amino]-methyl}-benzyl)-1,1-dioxo-1λ^6-isothiazolidine-3-carboxylic acid((1R,2R,3R,5S)-2,6,6-trimethyl-bicyclo[3.1.1]hept-3-yl)-amide], the inhibition at 10 µM was determined as 73%.
For the compound `COc1ccc(Cl)c(CN(Cc2cccc(CN3C(C(=O)NC45CC6CC(CC(C6)C4)C5)CCS3(=O)=O)c2)[C@H](CN(C)C)CC(C)(C)C)c1F` (stereo partly drawn) [Example 20, 2-(3-{[(6-Chloro-2-fluoro-3-methoxy-benzyl)-((S)-1-dimethylaminomethyl-3,3-dimethyl-butyl)-amino]-methyl}-benzyl)-1,1-dioxo-1λ^6-isothizolidine-3-carboxylic acid adamantan-1-ylamide], the inhibition at 10 µM was 95%.
To `COc1ccc(Cl)c(CN(Cc2cccc(CN3C(C(=O)N[C@H]4C[C@H]5C[C@@H]([C@@H]4C)C5(C)C)CCS3(=O)=O)c2)[C@@H](Cc2ccccc2)CN(C)C)c1F` (stereo partly drawn) [Example 21, 2-(3-{[(6-Chloro-2-fluoro-3-methoxy-benzyl)-((S)-1-dimethylaminomethyl-2-phenyl-ethyl)-amino]-methyl}-benzyl)-1,1-dioxo-1λ^6-isothiazolidine-3-carboxylic acid((1S,2S,3S,5R)-2,6,6-trimethyl-bicyclo[3.1.1]hept-3-yl)-amide] belongs 77%.
Turning to `COc1ccc(Cl)c(CN(Cc2cccc(CN3C(C(=O)N[C@H]4C[C@H]5C[C@@H]([C@@H]4C)C5(C)C)CCS3(=O)=O)c2)[C@@H](Cc2cccc(Cl)c2)CN(C)C)c1F` (stereo partly drawn) [Example 22, 2-[3-({(6-Chloro-2-fluoro-3-methoxy-benzyl)-[(S)-2-(3-chloro-phenyl)-1-dimethylaminomethyl-ethyl]-amino}-methyl)-benzyl]-1,1-dioxo-1λ^6-isothiazolidine-3-carboxylic acid((1S,2S,3S,5R)-2,6,6-trimethyl-bicyclo[3.1.1]hept-3-yl)-amide], the inhibition at 10 µM was determined as 93%.
As for `COc1ccc(Cl)c(CN(Cc2cccc(CN3C(C(=O)N[C@H]4C[C@H]5C[C@@H]([C@@H]4C)C5(C)C)CCS3(=O)=O)c2)[C@@H](Cc2ccc(Cl)cc2)CN(C)C)c1F` (stereo partly drawn) [Example 23, 2-[3-({(6-Chloro-2-fluoro-3-methoxy-benzyl)-[(S)-2-(4-chloro-phenyl)-1-dimethylaminomethyl-ethyl]-amino}-methyl)-benzyl]-1,1-dioxo-1λ^6-isothiazolidine-3-carboxylic acid((1S,2S,3S,5R)-2,6,6-trimethyl-bicyclo[3.1.1]hept-3-yl)-amide], the inhibition at 10 µM is 96%.
As to `COc1ccc(Cl)c(CN(Cc2cccc(CN3C(C(=O)N4CCC(c5ccccc5)CC4)CCS3(=O)=O)c2)[C@H](CN(C)C)CC(C)(C)C)c1F` (stereo partly drawn) [Example 24, [2-(3-{[(6-Chloro-2-fluoro-3-methoxy-benzyl)-((S)-1-dimethylaminomethyl-3,3-dimethyl-butyl)-amino]-methyl}-benzyl)-1,1-dioxo-1λ^6-isothiazolidin-3-yl]-(4-phenyl-piperidin-1-yl)-methanone], the inhibition at 10 µM amounted to 96%.
To `COc1ccc(Cl)c(CN(Cc2cccc(CN3C(C(=O)NCc4ccc(Cl)cc4)CCS3(=O)=O)c2)[C@H](CN(C)C)CC(C)(C)C)c1F` (stereo partly drawn) [Example 27, 2-(3-{[(6-Chloro-2-fluoro-3-methoxy-benzyl)-((S)-1-dimethylaminomethyl-3,3-dimethyl-butyl)-amino]-methyl}-benzyl)-1,1-dioxo-1λ^6-isothiazolidine-3-carboxylic acid 4-chloro-benzylamide] belongs 95%; to `COc1ccc(Cl)c(CN(Cc2cccc(CN3C(C(=O)N[C@H]4CC5CCC4(C)C5(C)C)CCS3(=O)=O)c2)[C@H](CN(C)C)CC(C)(C)C)c1F` (stereo partly drawn) [Example 28, 2-(3-{[(6-Chloro-2-fluoro-3-methoxy-benzyl)-((S)-1-dimethylaminomethyl-3,3-dimethyl-butyl)-amino]-methyl}-benzyl)-1,1-dioxo-1λ^6-isothiazolidine-3-carboxylic acid((S)-1,7,7-trimethyl-bicyclo[2.2.1]hept-2-yl)-amide], 96%; to `COc1ccc(F)c(F)c1CN(Cc1cccc(CN2C(C(=O)N[C@H]3C[C@H]4C[C@@H]([C@@H]3C)C4(C)C)CCS2(=O)=O)c1)[C@@H](Cc1ccccc1)CN(C)C` (stereo partly drawn) [Example 29, 2-(3-{[(2,3-Difluoro-6-methoxy-benzyl)-((S)-1-dimethylaminomethyl-2-phenyl-ethyl)-amino]-methyl}-benzyl)-1,1-dioxo-1λ^6-isothiazolidine-3-carboxylic acid((1S,2S,3S,5R)-2,6,6-trimethyl-bicyclo[3.1.1]hept-3-yl)-amide], 95%.
Take `COc1ccc(Cl)c(CN(Cc2cccc(CN3C(C(=O)NC4C5CC6CC(C5)CC4C6)CCS3(=O)=O)c2)[C@H](CN(C)C)CC(C)(C)C)c1F` (stereo partly drawn) [Example 30, 2-(3-{[(6-Chloro-2-fluoro-3-methoxy-benzyl)-((S)-1-dimethylaminomethyl-3,3-dimethyl-butyl)-amino]-methyl}-benzyl)-1,1-dioxo-1λ^6-isothiazolidine-3-carboxylic acid adamantan-2-ylamide]: the inhibition at 10 µM amounted to 96%.
Consider `COc1ccc(Cl)c(CN(Cc2cccc(CN3C(C(=O)N4CCC(O)(c5ccc(Cl)cc5)CC4)CCS3(=O)=O)c2)[C@H](CN(C)C)CC(C)(C)C)c1F` (stereo partly drawn) [Example 32, [2-(3-{[(6-Chloro-2-fluoro-3-methoxy-benzyl)-((S)-1-dimethylaminomethyl-3,3-dimethyl-butyl)-amino]-methyl}-benzyl)-1,1-dioxo-1λ^6-isothiazolidin-3-yl]-[4-(4-chloro-phenyl)-4-hydroxy-piperidin-1-yl]-methanone], for which the inhibition at 10 µM turned out to be 96%.
Regarding `COc1ccc(Cl)c(CN(Cc2cc(CN3C(C(=O)N[C@H]4C[C@H]5C[C@@H]([C@@H]4C)C5(C)C)CCS3(=O)=O)cc(N(C)C)c2)[C@H](CN(C)C)CC(C)(C)C)c1F` (stereo partly drawn) [Example 35, 2-(3-{[(6-Chloro-2-fluoro-3-methoxy-benzyl)-((S)-1-dimethylaminomethyl-3,3-dimethyl-butyl)-amino]-methyl}-5-dimethylamino-benzyl)-1,1-dioxo-1λ^6-isothiazolidine-3-carboxylic acid((1S,2S,3S,5R)-2,6,6-trimethyl-bicyclo[3.1.1]hept-3-yl)-amide, hydrochloride salt], the inhibition at 10 µM came out at 86%.

The record behind these values is patent publication US8314250B2, “Sultam derivatives” (Hoffmann-La Roche Inc., priority 2009, dated 2012).
